Laboratory results as given in patent US20060083738A1, “Treatment of cancer by the use of anti fas antibody” (FUSION ANTIBODIES LIMITED, priority 2002, published 2006).

Key:
Assay type in all cases: cell-based
Fas [1] = assay: Fas expression in response to 5FU treatment, MCF-7; settings: MCF-7 breast cancer cell line
Excerpt: (§1) FIG. 1 illustrates FAS/CD95 expression in response to 5-FU and tomudex (TDX).
(§2) Moreover, procaspase 8 and BID cleavage are not observed in cells treated with either 5PU or anti-Fas monoclonal antibody alone. However, both are activated following co-treatment with 5FU and anti-Fas monoclonal antibody (indicated by loss of full-length procaspase 8 and BID).

Fas [2] = assay: Fas expression in response to 5FU treatment, HCT116; settings: HCT116 colorectal cancer cell line
Excerpt: as §1, §2

[3] = tested on: procaspase 8, BID, c-FLIP, FasL; assay: Expression and activation of apoptosis regulating proteins in drug-treated cells
Experimental: FIG. 2 illustrates expression of apoptosis regulating proteins in MCF-7 cells 72 hours after treatment with 10 μM 5-FU or 100 nM TDX.
as §2

Fas / FasL interaction = assay: Immunoprecipitation of Fas receptor and FasL; settings: 5FU treatment, FIG. 1B

## O=c1[nH]cc(F)c(=O)[nH]1 [5FU, 5-Fluorouracil]
Fas [1]
  up-regulation of Fas expression: > 10 fold
Fas [2]
  up-regulation of Fas expression: > 10 fold
[3]; 5FU treatment
  FasL expression: unaffected
[3]; 5FU-treated MCF-7 and HCT116 cells, FIG. 1A
  activation of procaspase 8 or BID: does not result in activation of procaspase 8 or BID
[3]; 5FU-treated cells or co-treated cells
  c-FLIP expression: up-regulated
[3]; single agent or co-treatment, loss of full-length procaspase 8 and BID
  procaspase 8 and BID cleavage: not observed
Fas / FasL interaction
  interaction between receptor (Fas) and ligand (FasL): up-regulated
